Experimental data as given in patent publication US6362369B1, “Phthalic acid diamide derivatives fluorine-containing aniline compounds as starting material, agricultural and horticultural insecticides, and a method for application of the insecticides” (Nihon Nohyaku Co., Ltd., priority 1997, dated 2002).

How the values were obtained:
[1] = system: rice leafroller (Cnaphalocrocis medinalis); test: Insecticidal effect on rice leafroller (Test Example 3); assay type: in vivo; conditions: 500 ppm, 25° C., humidity 70%; for Insecticidal effect, Test Example 3: rice lamina immersed; for Insecticidal effect, Test Example 3 / Insecticidal effect on rice leafroller (Test Example 3), judged grade: four days after inoculation; for Insecticidal effect on rice leafroller (Test Example 3), judged grade / Insecticidal effect (Test Example 3), judged from mortality: rice lamina dip; for Insecticidal effect on rice leafroller (Test Example 3), judged grade: third-instar larvae; for Insecticidal effect (Test Example 3), judged from mortality: 4 days after inoculation
How it was run: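 Insecticidal effect is judged by a predefined criterion from dead/alive counts four days after infesting air-dried lamina with third-instar larvae, kept on moistened filter paper at 25° C, 70% humidity.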

[2] = system: diamondback moth (Plutella xylostella); test: Insecticidal effect on diamondback moth (Test Example 1); assay type: in vivo; conditions: for Insecticidal effect, Test Example 1 / Insecticidal effect (Test Example 1), judged from mortality: diamondback moth; for Insecticidal effect on diamondback moth (Test Example 1), judged grade: mortality judged according to the criterion shown in Test Example 1; for Insecticidal effect (Test Example 1), judged from mortality: judged by the criterion of Test Example 1
How it was run: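 Oviposition by adults on Chinese cabbage seedling; immersion; air-dry; 25° C room. Count of hatched larvae at day 6 post-immersion → mortality → effect graded by criterion. Triplicate, 10 insects/group.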

[3] = rice leafroller third-instar larvae
[4] = mortality judged by criterion of Test Example 1
[5] = third-instar larvae of rice leafroller
[6] = judged by the mortality criterion of Test Example 1

## CCN(CC)C(=O)c1c(C(=O)Nc2ccc(C(F)(F)C(F)(F)F)cc2Cl)cccc1[N+](=O)[O-] [compound 1133]
[1]; [3]
  Insecticidal effect, Test Example 3: A (100)
[2]; [4]
  Insecticidal effect, Test Example 1: A (100)

## Cc1c(Cl)cccc1NC(=O)c1c(I)cccc1C(=O)NC(C)C [compound 427]
[1]; [5]
  Insecticidal effect, Test Example 3: D (79-50)
[2]; [6]
  Insecticidal effect, Test Example 1: A (100)

## CC(C)NC(=O)c1cccc(Cl)c1C(=O)Nc1ccc(F)cc1Cl [compound 211]
[1]; [5]
  Insecticidal effect, Test Example 3: A (100)
[2]; [6]
  Insecticidal effect, Test Example 1: A (100)

## CC(C)NC(=O)c1ccccc1C(=O)Nc1ccc(C(F)(C(F)(F)F)C(F)(F)F)cc1Cl [compound 46]
[1]; [5]
  Insecticidal effect, Test Example 3: B (99-90)
[2]; [6]
  Insecticidal effect, Test Example 1: A (100)

## Cc1cc(Oc2ccc(C(F)(F)F)cn2)ccc1NC(=O)c1c(F)cccc1C(=O)NC(C)C [compound 576]
[1]
  Insecticidal effect on rice leafroller (Test Example 3), judged grade: C (89-80)
[2]
  Insecticidal effect on diamondback moth (Test Example 1), judged grade: A (100)

## CC(C)NC(=O)c1cccc(F)c1C(=O)Nc1ccc(OC(F)(F)F)cc1Br [compound 563]
[1]
  Insecticidal effect on rice leafroller (Test Example 3), judged grade: A (100)
[2]
  Insecticidal effect on diamondback moth (Test Example 1), judged grade: A (100)

## CC(C)NC(=O)c1c(I)cccc1C(=O)Nc1cccc2c1OC(F)(F)O2 [compound 1742]
[1]; [5]
  Insecticidal effect (Test Example 3), judged from mortality: A (100)
[2]
  Insecticidal effect (Test Example 1), judged from mortality: A (100)

## CSc1ccc(NC(=O)c2c(Br)cccc2C(=O)NC(C)C)c(C)c1 [compound 333]
[1]; [5]
  Insecticidal effect, Test Example 3: D (79-50)
[2]; [6]
  Insecticidal effect, Test Example 1: A (100)

## CCN(CC)C(=O)c1c(F)cccc1C(=O)Nc1ccc(C(F)(F)C(F)(F)F)cc1F [compound 1530]
[1]; [5]
  Insecticidal effect (Test Example 3), judged from mortality: A (100)
[2]
  Insecticidal effect (Test Example 1), judged from mortality: A (100)

## Cc1cc(C(F)(F)C(F)(F)F)ccc1NC(=O)c1cccc(I)c1C(=O)N(C)CC(C)C [compound 1043]
[1]; [3]
  Insecticidal effect, Test Example 3: A (100)
[2]; [4]
  Insecticidal effect, Test Example 1: A (100)

## CC(C)NC(=O)c1cccc(F)c1C(=O)Nc1ccc2c(c1)OCO2 [compound 580]
[1]
  Insecticidal effect on rice leafroller (Test Example 3), judged grade: A (100)
[2]
  Insecticidal effect on diamondback moth (Test Example 1), judged grade: A (100)

## CC(C)NC(=O)c1c(C(=O)Nc2ccc(C(F)(F)C(F)(F)C(F)(F)C(F)(F)F)cc2)cccc1[N+](=O)[O-] [compound 611]
[1]
  Insecticidal effect on rice leafroller (Test Example 3), judged grade: A (100)
[2]
  Insecticidal effect on diamondback moth (Test Example 1), judged grade: A (100)

## Cc1cc(C#Cc2ccccc2)ccc1NC(=O)c1cccc(Cl)c1C(=O)NC(C)C [compound 1325]
[1]; [3]
  Insecticidal effect, Test Example 3: A (100)
[2]; [4]
  Insecticidal effect, Test Example 1: A (100)

## Cc1cc(C(F)(F)C(F)(F)F)ccc1NC(=O)c1c(I)cccc1C(=O)N(C)Cc1ccccc1 [compound 1439]
[1]; [3]
  Insecticidal effect, Test Example 3: C (89-80)
[2]; [4]
  Insecticidal effect, Test Example 1: A (100)

## Cc1cc(OC(C)C)ccc1NC(=O)c1cccc([N+](=O)[O-])c1C(=O)NC(C)C [compound 690]
[1]
  Insecticidal effect on rice leafroller (Test Example 3), judged grade: A (100)
[2]
  Insecticidal effect on diamondback moth (Test Example 1), judged grade: A (100)

## CC(C)NC(=O)c1ccccc1C(=O)Nc1ccc2c(c1)OC(F)C(F)(F)O2 (stereo not drawn) [compound 1145]
[1]; [3]
  Insecticidal effect, Test Example 3: A (100)
[2]; [4]
  Insecticidal effect, Test Example 1: A (100)

## Cc1cc(C(F)(F)C(F)(F)F)ccc1NC(=O)c1cccc(Cl)c1C(=O)NC(C)c1ccccc1 (stereo not drawn) [compound 1321]
[1]; [3]
  Insecticidal effect, Test Example 3: A (100)
[2]; [4]
  Insecticidal effect, Test Example 1: A (100)

## CC(C)NC(=O)c1cccc(Cl)c1C(=O)Nc1ccc(OC(F)(F)F)cc1Br [compound 235]
[1]; [5]
  Insecticidal effect, Test Example 3: A (100)
[2]; [6]
  Insecticidal effect, Test Example 1: A (100)

## CCCN(CC)C(=O)c1c(F)cccc1C(=O)Nc1ccc(OC(F)(F)F)cc1 [compound 1582]
[1]; [5]
  Insecticidal effect (Test Example 3), judged from mortality: A (100)
[2]
  Insecticidal effect (Test Example 1), judged from mortality: A (100)

## Cc1cc(C(F)(F)C(F)(F)F)ccc1NC(=O)c1c(F)cccc1C(=O)NC(C)C [compound 551]
[1]
  Insecticidal effect on rice leafroller (Test Example 3), judged grade: A (100)
[2]
  Insecticidal effect on diamondback moth (Test Example 1), judged grade: A (100)

## Cc1cc(Cl)ccc1NC(=O)c1cccc(C)c1C(=O)NC(C)C [compound 750]
[1]
  Insecticidal effect on rice leafroller (Test Example 3), judged grade: A (100)
[2]
  Insecticidal effect on diamondback moth (Test Example 1), judged grade: A (100)

## Cc1cc(Oc2ncc(C(F)(F)F)cc2Cl)ccc1NC(=O)c1c(Cl)cccc1C(=O)NC(C)C [compound 250]
[1]; [5]
  Insecticidal effect, Test Example 3: D (79-50)
[2]; [6]
  Insecticidal effect, Test Example 1: A (100)

## Cc1cc(I)ccc1NC(=O)c1c(Cl)cccc1C(=O)NC(C)C [compound 217]
[1]; [5]
  Insecticidal effect, Test Example 3: A (100)
[2]; [6]
  Insecticidal effect, Test Example 1: A (100)

## CN(C(=O)c1ccccc1C(=O)NC(C)(C)C)c1ccc(OC(F)(F)F)cc1 [compound 933]
[1]
  Insecticidal effect on rice leafroller (Test Example 3), judged grade: A (100)
[2]
  Insecticidal effect on diamondback moth (Test Example 1), judged grade: A (100)

## Cc1ccc(Cl)cc1NC(=O)c1cc(OC(F)F)ccc1C(=O)NC(C)C [compound 776]
[1]
  Insecticidal effect on rice leafroller (Test Example 3), judged grade: D (79-50)
[2]
  Insecticidal effect on diamondback moth (Test Example 1), judged grade: B (99-90)

## CC(C)NC(=O)c1c(I)cccc1C(=O)Nc1ccc(C(C)C)c2scnc12 [compound 1763]
[1]; [5]
  Insecticidal effect (Test Example 3), judged from mortality: A (100)
[2]
  Insecticidal effect (Test Example 1), judged from mortality: A (100)

## CC(C)NC(=O)c1c(Cl)cccc1C(=O)Nc1ccc(C=C(Cl)C(F)(F)F)cc1 [compound 911]
[1]
  Insecticidal effect on rice leafroller (Test Example 3), judged grade: D (79-50)
[2]
  Insecticidal effect on diamondback moth (Test Example 1), judged grade: A (100)

## CCN(CC)C(=O)c1c(F)cccc1C(=O)Nc1ccc(C(F)(F)F)cc1 [compound 1547]
[1]; [5]
  Insecticidal effect (Test Example 3), judged from mortality: A (100)
[2]
  Insecticidal effect (Test Example 1), judged from mortality: A (100)

## CC(C)NC(=O)c1c(C(=O)Nc2ccccc2Br)cccc1[N+](=O)[O-] [compound 589]
[1]
  Insecticidal effect on rice leafroller (Test Example 3), judged grade: A (100)
[2]
  Insecticidal effect on diamondback moth (Test Example 1), judged grade: A (100)

## CC(C)NC(=O)c1ccc(Cl)cc1C(=O)Nc1ccc(F)c(F)c1 [compound 188]
[1]; [5]
  Insecticidal effect, Test Example 3: D (79-50)
[2]; [6]
  Insecticidal effect, Test Example 1: D (79-50)

## CC(C)NC(=O)c1c(Cl)cccc1C(=O)Nc1ccc([S+]([O-])C(F)(F)Br)cc1 (stereo not drawn) [compound 1111]
[1]; [3]
  Insecticidal effect, Test Example 3: A (100)
[2]; [4]
  Insecticidal effect, Test Example 1: A (100)

## Cc1ccc(Cl)cc1NC(=O)c1cccc(C(F)(F)F)c1C(=O)NC(C)C [compound 755]
[1]
  Insecticidal effect on rice leafroller (Test Example 3), judged grade: A (100)
[2]
  Insecticidal effect on diamondback moth (Test Example 1), judged grade: A (100)

## CCCNC(=O)c1c(Cl)cccc1C(=O)Nc1ccc(C(F)(F)C(F)(F)C(F)(F)F)cc1F [compound 1493]
[1]; [5]
  Insecticidal effect (Test Example 3), judged from mortality: A (100)
[2]
  Insecticidal effect (Test Example 1), judged from mortality: A (100)

## Cc1cc(C#CC(C)(C)C)ccc1NC(=O)c1cccc(Cl)c1C(=O)NC(C)C [compound 1301]
[1]; [3]
  Insecticidal effect, Test Example 3: A (100)
[2]; [4]
  Insecticidal effect, Test Example 1: A (100)

## C#CC(C)(C)NC(=O)c1c(Cl)cccc1C(=O)Nc1ccc(OC(F)F)cc1C [compound 1588]
[1]; [5]
  Insecticidal effect (Test Example 3), judged from mortality: A (100)
[2]
  Insecticidal effect (Test Example 1), judged from mortality: A (100)

## CCNC(=O)c1c(Cl)cccc1C(=O)Nc1ccc(C(F)(F)C(F)(F)C(F)(F)F)cc1F [compound 1490]
[1]; [5]
  Insecticidal effect (Test Example 3), judged from mortality: A (100)
[2]
  Insecticidal effect (Test Example 1), judged from mortality: A (100)

## CCCCc1ccc(NC(=O)c2cccc(Cl)c2C(=O)NC(C)C)cc1 [compound 87]
[1]; [5]
  Insecticidal effect, Test Example 3: A (100)
[2]; [6]
  Insecticidal effect, Test Example 1: A (100)

## Cc1ccc(Cl)cc1NC(=O)c1c(Br)cccc1C(=O)NC(C)C [compound 307]
[1]; [5]
  Insecticidal effect, Test Example 3: D (79-50)
[2]; [6]
  Insecticidal effect, Test Example 1: A (100)

## Cc1cc(OC(F)(F)F)ccc1NC(=O)c1c(I)cccc1C(=O)NC(C)(C)C [compound 958]
[1]; [3]
  Insecticidal effect, Test Example 3: A (100)
[2]; [4]
  Insecticidal effect, Test Example 1: A (100)

## Cc1cccc(NC(=O)c2c(Br)cccc2C(=O)NC(C)C)c1C [compound 303]
[1]; [5]
  Insecticidal effect, Test Example 3: D (79-50)
[2]; [6]
  Insecticidal effect, Test Example 1: A (100)

## CC(C)NC(=O)c1ccccc1C(=O)Nc1cccc(Cl)c1Cl [compound 41]
[1]; [5]
  Insecticidal effect, Test Example 3: A (100)
[2]; [6]
  Insecticidal effect, Test Example 1: A (100)

## CC(C)NC(=O)c1ccccc1C(=O)Nc1ccc([S+]([O-])C(F)(F)Br)cc1 (stereo not drawn) [compound 1107]
[1]; [3]
  Insecticidal effect, Test Example 3: A (100)
[2]; [4]
  Insecticidal effect, Test Example 1: A (100)
